# Experimental data from paper PMC3757052, “Molecular Cloning and Characterization of Novel Glutamate-Gated Chloride Channel Subunits from Schistosoma mansoni” (PLoS Pathogens, 2013).
# Legend:
# Experiment in all cases: two-electrode voltage clamp in Xenopus oocytes
# Assay type in all cases: cell-based
# SmGluCl-1 = molecular target: T1, SmGluCl-1 (Schistosoma mansoni, UniProt G4VR43)
# T1 construct: full-length subunit co-expressed 1:1 with SmGluCl-2.1 (heteromer; no functional SmGluCl-1 homomer); with SmGluCl-2.1
# SmGluCl-2.1 (SmGluCl-2) = molecular target: T2, SmGluCl-2.1 (SmGluCl-2) (Schistosoma mansoni, UniProt T2C5A6)
# T2 construct: gene GluCl; full-length subunit isoform 1, homomeric receptor (KC861382)
# SmGluCl-3 = molecular target: T3, SmGluCl-3 (Schistosoma mansoni, UniProt T2C5W6)
# T3 construct: gene GluCl; full-length subunit, homomeric receptor (KC861384)
# T3 sequence (T2C5W6 entry or part of it): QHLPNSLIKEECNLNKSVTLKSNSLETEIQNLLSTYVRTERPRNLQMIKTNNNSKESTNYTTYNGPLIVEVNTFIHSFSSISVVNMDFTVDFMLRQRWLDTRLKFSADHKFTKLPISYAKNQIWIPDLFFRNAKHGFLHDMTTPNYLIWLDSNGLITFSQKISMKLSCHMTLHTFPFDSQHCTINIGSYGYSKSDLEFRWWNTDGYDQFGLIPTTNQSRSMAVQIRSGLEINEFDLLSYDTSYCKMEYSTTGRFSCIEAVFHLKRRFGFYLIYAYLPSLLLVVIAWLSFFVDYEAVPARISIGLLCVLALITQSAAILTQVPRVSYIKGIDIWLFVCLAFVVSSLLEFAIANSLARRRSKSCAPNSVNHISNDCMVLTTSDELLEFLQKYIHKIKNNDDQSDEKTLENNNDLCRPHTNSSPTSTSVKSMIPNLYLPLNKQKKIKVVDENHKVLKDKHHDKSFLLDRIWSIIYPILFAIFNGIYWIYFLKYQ
# T1 sequence (T2C5A6 entry or part of it): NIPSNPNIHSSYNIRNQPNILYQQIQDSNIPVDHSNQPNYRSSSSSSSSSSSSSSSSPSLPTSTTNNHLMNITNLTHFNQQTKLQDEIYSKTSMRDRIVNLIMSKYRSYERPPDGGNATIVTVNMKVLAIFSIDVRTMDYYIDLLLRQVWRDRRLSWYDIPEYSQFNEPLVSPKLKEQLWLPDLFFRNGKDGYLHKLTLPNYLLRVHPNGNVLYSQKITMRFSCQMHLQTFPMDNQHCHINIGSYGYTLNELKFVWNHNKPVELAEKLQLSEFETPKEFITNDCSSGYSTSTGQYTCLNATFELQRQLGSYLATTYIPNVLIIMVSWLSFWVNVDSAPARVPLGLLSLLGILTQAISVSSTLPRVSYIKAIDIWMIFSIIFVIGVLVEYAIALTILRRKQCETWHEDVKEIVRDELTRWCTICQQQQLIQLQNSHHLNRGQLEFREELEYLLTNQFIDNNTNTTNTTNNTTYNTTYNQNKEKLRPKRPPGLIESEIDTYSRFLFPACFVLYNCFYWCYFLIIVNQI
# T1 sequence (G4VR43 entry or part of it): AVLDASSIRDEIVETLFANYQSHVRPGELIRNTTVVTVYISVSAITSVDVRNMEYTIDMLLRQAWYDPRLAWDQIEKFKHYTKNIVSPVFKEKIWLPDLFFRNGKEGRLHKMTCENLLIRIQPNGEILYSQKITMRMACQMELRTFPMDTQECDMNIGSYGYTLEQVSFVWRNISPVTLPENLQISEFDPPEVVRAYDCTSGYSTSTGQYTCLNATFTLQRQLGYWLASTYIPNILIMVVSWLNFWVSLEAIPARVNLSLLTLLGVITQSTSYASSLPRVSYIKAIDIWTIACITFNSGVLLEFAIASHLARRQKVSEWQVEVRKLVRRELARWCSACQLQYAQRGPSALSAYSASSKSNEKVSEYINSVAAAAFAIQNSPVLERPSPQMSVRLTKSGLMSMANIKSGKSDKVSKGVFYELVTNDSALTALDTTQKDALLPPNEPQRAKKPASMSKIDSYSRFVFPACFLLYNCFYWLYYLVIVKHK
# T2 sequence (T2C5A6 entry or part of it): as the sequence (T2C5A6 entry or part of it) above
smiles,measurement,setting,value
N[C@@H](CCC(=O)O)C(=O)O [L-glutamate],EC50,SmGluCl-1,26.3 ± 2 µM
same,EC50,SmGluCl-2.1 (SmGluCl-2),11.8 ± 0.6 µM
same,EC50,SmGluCl-3,6.9 ± 0.5 µM
